Data taken from patent publication US20220106301A1, “ACETAMIDO-PHENYLBENZAMIDE DERIVATIVES AND METHODS OF USING THE SAME” (Athenex, Inc., priority 2020, published 2022).
Where two headings read alike, the source gives them in different places.

What was measured:
P-glycoprotein = molecular target: T1, P-glycoprotein (Homo sapiens, UniProt P08183); experiment: Determination of P-glycoprotein inhibitory activity (MTT cell growth, MES-SA/DX5 cells with docetaxel or paclitaxel); format: cell-based; conditions: compound + 100 nM docetaxel or 200 nM paclitaxel, 3 days
T1 construct: A P-glycoprotein overexpressing cell line derived from the human uterine sarcoma cell line MES-SA; host or cells: MES-SA/DX5 (human uterine sarcoma, doxorubicin-selected)
T1 sequence (P08183 whole entry): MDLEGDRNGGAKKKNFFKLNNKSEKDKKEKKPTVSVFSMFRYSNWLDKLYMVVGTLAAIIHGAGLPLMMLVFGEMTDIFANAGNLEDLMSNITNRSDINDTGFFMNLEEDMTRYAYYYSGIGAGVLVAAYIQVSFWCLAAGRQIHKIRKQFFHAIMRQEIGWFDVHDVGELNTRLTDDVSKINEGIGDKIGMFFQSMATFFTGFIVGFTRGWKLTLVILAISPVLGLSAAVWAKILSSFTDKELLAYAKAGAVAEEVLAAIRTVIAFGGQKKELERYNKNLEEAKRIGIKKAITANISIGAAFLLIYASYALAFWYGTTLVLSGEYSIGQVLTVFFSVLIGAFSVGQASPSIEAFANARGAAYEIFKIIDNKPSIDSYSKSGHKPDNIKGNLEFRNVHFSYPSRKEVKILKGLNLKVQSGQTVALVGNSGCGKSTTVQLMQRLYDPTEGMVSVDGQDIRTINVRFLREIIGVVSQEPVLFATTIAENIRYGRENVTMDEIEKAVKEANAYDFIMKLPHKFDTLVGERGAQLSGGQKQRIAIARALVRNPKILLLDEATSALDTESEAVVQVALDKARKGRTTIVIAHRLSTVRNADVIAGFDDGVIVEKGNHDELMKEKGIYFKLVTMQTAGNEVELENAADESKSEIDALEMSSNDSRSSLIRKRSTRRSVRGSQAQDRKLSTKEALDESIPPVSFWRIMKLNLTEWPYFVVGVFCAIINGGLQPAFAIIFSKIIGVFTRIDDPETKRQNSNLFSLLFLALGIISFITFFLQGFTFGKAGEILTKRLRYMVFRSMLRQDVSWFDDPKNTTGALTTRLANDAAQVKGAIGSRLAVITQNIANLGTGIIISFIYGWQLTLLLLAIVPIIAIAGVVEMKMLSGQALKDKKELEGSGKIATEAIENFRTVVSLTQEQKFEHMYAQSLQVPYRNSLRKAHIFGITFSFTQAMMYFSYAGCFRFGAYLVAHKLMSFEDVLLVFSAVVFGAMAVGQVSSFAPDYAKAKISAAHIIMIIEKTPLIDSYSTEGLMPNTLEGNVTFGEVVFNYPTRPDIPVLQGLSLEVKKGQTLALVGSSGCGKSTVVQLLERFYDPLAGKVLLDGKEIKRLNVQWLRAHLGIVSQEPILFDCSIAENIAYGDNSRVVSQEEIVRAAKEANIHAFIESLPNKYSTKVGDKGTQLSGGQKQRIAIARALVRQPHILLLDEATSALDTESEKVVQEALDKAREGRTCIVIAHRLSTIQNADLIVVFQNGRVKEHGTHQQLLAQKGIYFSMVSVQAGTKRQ
Protocol: A P-glycoprotein overexpressing cell line derived from the human uterine sarcoma cell line MES-SA (i.e., MES-SA/DX5 cells (ATCC)) was seeded by stepwise exposures to increasing concentrations of doxorubicin, in a 96-well plate at 6,500 cells/100 μL media (McCoy's 5A+10% FBS) in each well. The cells were incubated overnight at 37° C., 5% CO2. […] DMSO was used as a negative control and known P-glycoprotein inhibitor, encequidar methane sulfonic acid monohydrate (HM30181A), was used as a positive control. […] Treated cells were incubated for 3 days at 37° C., 5% CO2.
To value (reflecting the starting number of cells upon Compound treatment) of 3 wells of cells was determined by performing the following steps 1-4 as described below.
1. 10 μL MTT (5 mg/mL in PBS) was added to each well and incubated for 1.5 hours at 37° C., 5% CO2.
2. Culture media was removed and 100 μL of DMSO was added to each well.
3. The plate was gently shook until all purple MTT formazan crystals were dissolved. OD540 was then measured using microplate reader.
4. Cell growth percentage was calculated with the following equation:
Cell growth percentage=(T−T0)/(C−T0)×100%,

CYP3A4 = CYP3A4 (Homo sapiens, UniProt P08684); experiment: Determination of CYP3A4 inhibitory activity (human liver microsome, Luciferin-IPA)
Chain of CYP3A4 (P08684 whole entry): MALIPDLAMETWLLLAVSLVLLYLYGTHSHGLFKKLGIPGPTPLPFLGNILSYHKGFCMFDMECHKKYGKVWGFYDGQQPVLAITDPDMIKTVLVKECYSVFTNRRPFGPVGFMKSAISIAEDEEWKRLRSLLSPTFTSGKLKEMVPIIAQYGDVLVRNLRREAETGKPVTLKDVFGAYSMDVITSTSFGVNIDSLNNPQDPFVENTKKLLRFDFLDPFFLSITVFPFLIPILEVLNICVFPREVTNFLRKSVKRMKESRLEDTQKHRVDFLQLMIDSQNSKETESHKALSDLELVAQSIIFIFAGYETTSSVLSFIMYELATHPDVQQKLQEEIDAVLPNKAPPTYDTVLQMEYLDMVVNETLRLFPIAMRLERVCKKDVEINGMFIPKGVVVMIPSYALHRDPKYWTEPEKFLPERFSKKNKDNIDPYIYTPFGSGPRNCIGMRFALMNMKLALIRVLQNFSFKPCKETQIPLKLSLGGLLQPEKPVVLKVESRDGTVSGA
Outline: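 Final compound concentrations 37, 111, 333, 1000 and 3000 nM; reaction at 37° C for 11 min, then luciferin detection reagent 5 min at room temperature with luminescence read-out. IC50 from nonlinear regression of dose-response.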

[1] = Oral absorption of docetaxel in mice (plasma pharmacokinetics of oral docetaxel co-dosed with compound); format: in vivo; conditions: CD-1 mice
Protocol: In vivo activity of the compounds of the present disclosure was performed as follows: Eighteen 7- to 9-week-old CD-1 mice were fasted overnight prior to drug administration while they were allowed free access to water and were fed 4 hours post dosing. Mice were divided into four groups of three to five […] each.
Blood samples (approx. 30-50 μL) were obtained via peripheral veins of each mouse before (0) and 0.25, 0.5, 1, 2, 4, and 8 hours after docetaxel administration for control group (entry 1, Table C) and at 0.25, 0.5, 1, 2, 4, and 8 hours after docetaxel administration for rest of the groups (entries 2-4, Table C). Blood samples were treated with EDTA-K2 as anti-coagulant and placed on ice until centrifugation. Each blood sample was centrifuged at 4° C., 3000 g for 15 min within 0.5 hour from plasma collection. An aliquot of 20 μL plasma sample was protein precipitated with 100 μL IS (Internal Standard) solution (100 ng/mL labetalol+100 ng/mL tolbutamide in acetonitrile, 1:1), the mixture was vortex-mixed and centrifuged at 4000 rpm for 15 min at 4° C. An aliquot of 80 μL sample was transferred to a sample plate and mixed with 80 μL water, then the plate was shook at 800 rpm for 10 min. 1-10 μL of the supernatant was then injected for LC-MS/MS analysis under the following conditions:
MS conditions: ESI, positive;
Column: Waters ACQUITY UPLC BEH C18 2.1×50 mm, 1.7 μm;
Mobile phase A: 0.1% formic acid in water; and
Mobile phase B: 0.1% formic acid in acetonitrile.

[2] = oral docetaxel 10 mg/kg with oral compound (Compound 16 80 mg/kg, Compound 48 20 mg/kg, encequidar 10 mg/kg), plasma
[3] = CYP3A4 IC50 (nM), 37° C. 11 minutes

SMILES | IC50 (CYP3A4; [3]) [nM] | also measured
COc1cc2c(cc1OC)CN(CCc1ccc(-n3nnc(-c4cc(OC)c(OC)cc4NC(=O)c4cc(=O)c5ccccc5o4)n3)cc1)CC2.CS(=O)(=O)O.O [encequidar methane sulfonic acid monohydrate] |  | EC50 (P-glycoprotein): < 100 nM; IC50 (CYP3A4; read-out: CYP3A4 IC50, 37° C. 11 minutes): > 1000 nM; AUC0-inf of oral docetaxel (area under the curve of plasma concentration) [1, 2]: 698 ± 238 ng·h/mL; Cmax of oral docetaxel (maximum plasma concentration) [1, 2]: 316 ± 98.1 ng/mL; Tmax of oral docetaxel (time at the maximum plasma concentration) [1, 2]: 42 ± 16.4 min; increase in the systemic bioavailability of orally dosed docetaxel ([1]; as compared to when there was no inhibitor): 3.4 fold
COC(=O)c1ccc(C(=O)Nc2ccc(CCN(Cc3ccc(OC)c(OC)c3)Cc3ccc(OC)c(OC)c3)cc2)c(NC(=O)c2cc(=O)c3ccccc3o2)c1 [Compound 263] | > 1000 | 
COc1cc(NC(=O)c2cc(=O)c3ccccc3o2)c(C(=O)Nc2ccc(CCN(C)Cc3cccc(-c4nc(C)no4)c3)cc2)cc1OC [Compound 157] | > 1000 | 
CCN(CCc1ccc(NC(=O)c2cc(OC)c(OC)cc2NC(=O)c2cc(=O)c3ccccc3o2)cc1)Cc1ccc2[nH]ncc2c1 [Compound 184] | > 1000 | 
COc1cc(NC(=O)c2cc(=O)c3ccccc3o2)c(C(=O)Nc2ccc(CCN(Cc3cccc(-n4ccnc4)c3)CC(C)C)cc2)cc1OC [Compound 99] | 250 to 500 | 
COc1cc(NC(=O)c2cc(=O)c3ccccc3o2)c(C(=O)Nc2ccc(CCN(Cc3cccc(-n4ccnc4)c3)CC3CC3)cc2)cc1OC [Compound 9] | 100 to 250 | 
COC(=O)c1ccc(C(=O)Nc2ccc(CCN(C)Cc3ccc4c(cnn4C)c3)cc2)c(NC(=O)c2cc(=O)c3ccccc3o2)c1 [Compound 270] | > 1000 | 
COCCOc1cncc(CN(CCc2ccc(NC(=O)c3cc(OC)c(OC)cc3NC(=O)c3cc(=O)c4ccccc4o3)cc2)Cc2ccc3c(c2)c(C)nn3C)c1 [Compound 65] | 100 to 250 | 
COc1ccc(CN(CCc2ccc(NC(=O)c3ccc(C(=O)O)cc3NC(=O)c3cc(=O)c4ccccc4o3)cc2)Cc2ccc(OC)c(OC)c2)cc1OC [Compound 264] | > 1000 | 
CCN(CCc1ccc(NC(=O)c2cc(OC)c(OC)cc2NC(=O)c2cc(=O)c3ccccc3o2)cc1)Cc1ccc2c(cnn2CC)c1 [Compound 192] | > 1000 | 
Cn1ncc2cc(CN(CCc3ccc(NC(=O)c4ccc(C(=O)O)cc4NC(=O)c4cc(=O)c5ccccc5o4)cc3)Cc3ccc4c(cnn4C)c3)ccc21 [Compound 267] | > 1000 | 
COc1cc(NC(=O)c2cc(=O)c3ccccc3o2)c(C(=O)Nc2ccc(CCN(Cc3cncc(F)c3)Cc3ccc4c(cnn4C)c3)cc2)cc1OC [Compound 46] | 250 to 500 | 
COc1cncc(CN(CCc2ccc(NC(=O)c3cc(OC)c(OC)cc3NC(=O)c3cc(=O)c4cc(C)ccc4o3)cc2)Cc2ccc3c(c2)c(C)nn3C)c1 [Compound 67] | 100 to 250 | 
COc1cc(NC(=O)C2CC(=O)c3ccccc3O2)c(C(=O)Nc2ccc(CCN(Cc3cccc(-n4ccnc4)c3)Cc3cc(OC)c(OC)c(OC)c3)cc2)cc1OC (centres unmarked) [Compound 213] | < 100 | 
CCN(CCc1ccc(NC(=O)c2cc(OC)c(OC)cc2NC(=O)c2cc(=O)c3ccccc3o2)cc1)Cc1ccc(OC)c(OCCn2ccnc2)c1 [Compound 132] | 100 to 250 | 
CCCN(CCc1ccc(NC(=O)c2cc(OC)c(OC)cc2NC(=O)c2cc(=O)c3ccccc3o2)cc1)Cc1cccc(-n2ccnc2)c1 [Compound 90] | 250 to 500 | 
COc1cc(NC(=O)c2cc(=O)c3ccccc3o2)c(C(=O)Nc2ccc(CCN(Cc3cccnc3)Cc3ccc4c(c3)CCO4)cc2)cc1OC [Compound 45] | 250 to 500 | 
COc1cc(NC(=O)C2CC(=O)c3cc(C)ccc3O2)c(C(=O)Nc2ccc(CCN(Cc3cccc(-n4ccnc4)c3)Cc3ccc4c(cnn4C)c3)cc2)cc1OC (centres unmarked) [Compound 199] | 500 to 1000 | 
COc1cc(NC(=O)c2cc(=O)c3ccccc3o2)c(C(=O)Nc2ccc(CCN(Cc3cncc(C)c3)Cc3ccc4c(cnn4C)c3)cc2)cc1OC [Compound 57] | 250 to 500 | 
COc1cc(NC(=O)c2cc(=O)c3ccccc3o2)c(C(=O)Nc2ccc(CCN(Cc3cncc(OCCN4CCOCC4)c3)Cc3ccc4c(cnn4C)c3)cc2)cc1OC [Compound 240] | 250 to 500 | 
COC(=O)c1ccc(C(=O)Nc2ccc(CCN(Cc3cncc(OC)c3)Cc3cncc(OC)c3)cc2)c(NC(=O)c2cc(=O)c3ccccc3o2)c1 [Compound 258] | < 100 | 
